The values that follow come from ChEMBL document CHEMBL1159230, “Anti-AIDS agents, 18. Sodium and potassium salts of caffeic acid tetramers from Arnebia euchroma as anti-HIV agents” (J Nat Prod, 1995).

The test system of series [1] is Human immunodeficiency virus 1. Description: Antiviral activity against HIV1 3B infected in human H9 cells after 4 days by p24 antigen ELISA assay. Type of series: functional, organism-based. The note with it: Human immunodeficiency virus 1, 3B, H9, 96 h. A general note: An ELISA detects its analyte on a solid surface through an enzyme-linked reagent.
In another series the test system is H9. Description: Cytotoxicity against human H9 cells. Type of series: cell-based.
A short description of series [2]: Therapeutic index, ratio of IC50 for human H9 cells to EC50 for HIV1 3B. It is filed as cell-based. The note with it: for Ratio IC50/EC50: h9; for selectivity ratio: H9 cells, read-out: Ratio IC50/EC50.

In brackets after ≈: the same amount, converted by molar mass.

By EC50 is commonly meant the concentration that produces a half-maximal response. A higher EC50 goes with a need for much substance. The IC50 is the midpoint of a concentration-inhibition curve. In series [1], `O=C(O[C@H](Cc1ccc(O)c(O)c1)C(=O)O)C1=Cc2cc(O)c(O)cc2[C@H](c2ccc(O)c(O)c2)[C@H]1C(=O)O[C@H](Cc1ccc(O)c(O)c1)C(=O)O` returned a 50% effective concentration (EC50) of 13 µg/mL (≈ 18.1 µM). The IC50 in the series with H9 worked out at 45 µg/mL (≈ 62.6 µM). Also, the “Ratio IC50/EC50” value in series [2] is 3.5.

`O=C(O[C@H](Cc1ccc(O)c(O)c1)C(=O)[O-])C1=Cc2cc(O)c(O)cc2[C@@H](c2ccc(O)c(O)c2)C1C(=O)O[C@H](Cc1ccc(O)c(O)c1)C(=O)[O-].[K+].[K+]` (stereo partly drawn) had an EC50 in series [1] of 16 µg/mL. In the series on H9, inhibition was half-maximal at 50 µg/mL (IC50). The “Ratio IC50/EC50” value in series [2] turned out to be 3.1.

For `O=C(O[C@H](Cc1ccc(O)c(O)c1)C(=O)[O-])C1=Cc2cc(O)c(O[C@@H]3O[C@H](CO)[C@@H](O)[C@H](O)[C@H]3O)cc2[C@@H](c2ccc(O)c(O)c2)C1C(=O)O[C@H](Cc1ccc(O)c(O)c1)C(=O)[O-].[K+].[Na+]` (stereo partly drawn), in series [1], the EC50 came to 30 µg/mL. Also, in the series on H9, half-maximal inhibition (IC50) was put at 60 µg/mL. The selectivity ratio in series [2] amounted to 2.

As for `O=C(O[C@H](Cc1ccc(O)c(O)c1)C(=O)[O-])C1=Cc2cc(O)c(O)cc2[C@@H](c2ccc(O)c(O)c2)C1C(=O)O[C@H](Cc1ccc(O)c(O)c1)C(=O)[O-].[Na+].[Na+]` (stereo partly drawn), the response in series [1] was half-maximal at 2.8 µg/mL (EC50). Besides, in the series on H9, the IC50 worked out at 55 µg/mL. The “Ratio IC50/EC50” value in series [2] is reported as 19.6.

With `O=C(O[C@H](Cc1ccc(O)c(O)c1)C(=O)[O-])C1=Cc2cc(O)c(O)cc2[C@H](c2ccc(O)c(O)c2)[C@H]1C(=O)O[C@H](Cc1ccc(O)c(O)c1)C(=O)O.[K+]`, the midpoint of the response in series [1], the EC50, lay at 1.5 µg/mL. The same molecule displayed an IC50 in the series with H9 of 50 µg/mL. Also, in series [2], the “Ratio IC50/EC50” value came out at 33.3.

`O=C(O[C@H](Cc1ccc(O)c(O)c1)C(=O)O)C1=Cc2cc(O)c(O)cc2[C@@H](c2ccc(O)c(O)c2)C1C(=O)O[C@H](Cc1ccc(O)c(O)c1)C(=O)O` (stereo partly drawn) registered an EC50 in series [1] of 15 µg/mL (≈ 20.9 µM). The molecule also gave an IC50 in the series with H9 of 50 µg/mL (≈ 69.6 µM). Besides, in series [2], the “Ratio IC50/EC50” value came to 3.3.

In series [1], `O=C(O[C@H](Cc1ccc(O)c(O)c1)C(=O)[O-])C1=Cc2cc(O)c(O)cc2[C@@H](c2ccc(O)c(O)c2)C1C(=O)O[C@H](Cc1ccc(O)c(O)c1)C(=O)O.[K+]` (stereo partly drawn) gave a half-maximal effective concentration (EC50) of 4 µg/mL. In the series on H9, this molecule came in with a half-inhibitory concentration (IC50) of 50 µg/mL. Moreover, the “Ratio IC50/EC50” value in series [2] amounted to 12.5.

In series [1], `O=c1ccn([C@@H]2O[C@H](CO)[C@@H](O)[C@H]2O)c(=O)[nH]1` [URIDINE] came in with an EC50 of 10 µg/mL (≈ 40.9 µM). Besides, the selectivity ratio in series [2] was above 10.
